Measurements published in PubChem BioAssay (NCI).
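Grown in 96-well plates, cells were treated for 48 hours with each compound at five concentrations. Insufficient inhibition: endpoint recorded as highest concentration tested. The concentration for full growth arrest is given as TGI.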

Legend:
Assay in all cases: growth of human tumour cells (NCI), 48 h
A549 NSCLC = test system: A549 NSCLC
SW-620 colon = test system: SW-620 colon
KM12 colon = test system: KM12 colon
HCC-2998 colon = test system: HCC-2998 colon
TK-10 renal = test system: TK-10 renal
HCT-15 colon = test system: HCT-15 colon
OVCAR-4 ovarian = test system: OVCAR-4 ovarian
SK-MEL-28 melanoma = test system: SK-MEL-28 melanoma
HS 578T breast = test system: HS 578T breast
786-0 renal = test system: 786-0 renal
DU-145 prostate = test system: DU-145 prostate
MDA-MB-435 = test system: MDA-MB-435
BT-549 breast = test system: BT-549 breast
HT29 colon = test system: HT29 colon
PC-3 prostate = test system: PC-3 prostate
UACC-62 melanoma = test system: UACC-62 melanoma
U251 CNS = test system: U251 CNS
IGROV1 ovarian = test system: IGROV1 ovarian
SK-MEL-2 melanoma = test system: SK-MEL-2 melanoma
MDA-N = test system: MDA-N
HOP-92 NSCLC = test system: HOP-92 NSCLC
EKVX NSCLC = test system: EKVX NSCLC
NCI-H460 lung = test system: NCI-H460 lung
MCF7 breast = test system: MCF7 breast
HCT-116 colon = test system: HCT-116 colon
ACHN renal = test system: ACHN renal
SF-268 CNS = test system: SF-268 CNS
MDA-MB-231 breast = test system: MDA-MB-231 breast
CAKI-1 renal = test system: CAKI-1 renal
A498 renal = test system: A498 renal
RPMI-8226 leukemia = test system: RPMI-8226 leukemia
OVCAR-8 ovarian = test system: OVCAR-8 ovarian
LOX IMVI melanoma = test system: LOX IMVI melanoma
CCRF-CEM leukemia = test system: CCRF-CEM leukemia
COLO 205 colon = test system: COLO 205 colon
SF-539 CNS = test system: SF-539 CNS
RXF 393 renal = test system: RXF 393 renal
SR leukemia = test system: SR leukemia
HOP-62 NSCLC = test system: HOP-62 NSCLC
NCI-H23 lung = test system: NCI-H23 lung
SN12C renal = test system: SN12C renal
NCI-H226 lung = test system: NCI-H226 lung
MALME-3M melanoma = test system: MALME-3M melanoma
OVCAR-5 ovarian = test system: OVCAR-5 ovarian
M14 melanoma = test system: M14 melanoma
HL-60(TB) leukemia = test system: HL-60(TB) leukemia
UO-31 renal = test system: UO-31 renal
NCI/ADR-RES ovarian = test system: NCI/ADR-RES ovarian
SK-OV-3 ovarian = test system: SK-OV-3 ovarian
SF-295 CNS = test system: SF-295 CNS
NCI-H522 lung = test system: NCI-H522 lung
SNB-19 CNS = test system: SNB-19 CNS
SK-MEL-5 melanoma = test system: SK-MEL-5 melanoma
MOLT-4 leukemia = test system: MOLT-4 leukemia
OVCAR-3 ovarian = test system: OVCAR-3 ovarian
UACC-257 melanoma = test system: UACC-257 melanoma
T-47D breast = test system: T-47D breast
SNB-75 CNS = test system: SNB-75 CNS
K-562 leukemia = test system: K-562 leukemia

COc1cc2c(cc1OC)-c1cc3cc(OC)c(OC)cc3c(C)[n+]1CC2 (tested in a mixture with another compound)
TGI (A549 NSCLC): > 100 µM | TGI (SW-620 colon): > 100 µM | TGI (KM12 colon): > 100 µM | TGI (HCC-2998 colon): 62.5 µM | TGI (TK-10 renal): > 100 µM | TGI (HCT-15 colon): > 100 µM | TGI (OVCAR-4 ovarian): > 100 µM | TGI (SK-MEL-28 melanoma): > 100 µM | TGI (HS 578T breast): > 100 µM | TGI (786-0 renal): > 100 µM | TGI (DU-145 prostate): > 100 µM | TGI (MDA-MB-435): > 100 µM | TGI (BT-549 breast): > 100 µM | TGI (HT29 colon): > 100 µM | TGI (PC-3 prostate): > 100 µM | TGI (UACC-62 melanoma): 95.5 µM | TGI (U251 CNS): > 100 µM | TGI (IGROV1 ovarian): > 100 µM | TGI (SK-MEL-2 melanoma): > 100 µM | TGI (MDA-N): > 100 µM | TGI (HOP-92 NSCLC): > 100 µM | TGI (EKVX NSCLC): > 100 µM | TGI (NCI-H460 lung): 71.2 µM | TGI (MCF7 breast): > 100 µM | TGI (HCT-116 colon): > 100 µM | TGI (ACHN renal): > 100 µM | TGI (SF-268 CNS): > 100 µM | TGI (MDA-MB-231 breast): > 100 µM | TGI (CAKI-1 renal): > 100 µM | TGI (A498 renal): > 100 µM | TGI (RPMI-8226 leukemia): > 100 µM | TGI (OVCAR-8 ovarian): > 100 µM | TGI (LOX IMVI melanoma): > 100 µM | TGI (CCRF-CEM leukemia): 77 µM | TGI (COLO 205 colon): > 100 µM | TGI (SF-539 CNS): > 100 µM | TGI (RXF 393 renal): > 100 µM | TGI (SR leukemia): […] | TGI (HOP-62 NSCLC): > 100 µM | TGI (NCI-H23 lung): > 100 µM | TGI (SN12C renal): > 100 µM | TGI (NCI-H226 lung): > 100 µM | TGI (MALME-3M melanoma): > 100 µM | TGI (OVCAR-5 ovarian): > 100 µM | TGI (M14 melanoma): > 100 µM | TGI (HL-60(TB) leukemia): > 100 µM | TGI (UO-31 renal): > 100 µM | TGI (NCI/ADR-RES ovarian): > 100 µM | TGI (SK-OV-3 ovarian): > 100 µM | TGI (SF-295 CNS): > 100 µM | TGI (NCI-H522 lung): > 100 µM | TGI (SNB-19 CNS): > 100 µM | TGI (SK-MEL-5 melanoma): > 100 µM | TGI (MOLT-4 leukemia): 48.1 µM | TGI (OVCAR-3 ovarian): > 100 µM | TGI (UACC-257 melanoma): 46.3 µM | TGI (T-47D breast): 25.2 µM

CC(NNC(=S)N1CCCC1)c1cccnn1 (stereo not drawn)
TGI (SW-620 colon): > 100 µM | TGI (KM12 colon): > 100 µM | TGI (HCC-2998 colon): > 100 µM | TGI (TK-10 renal): > 31.5 µM | TGI (HCT-15 colon): > 100 µM | TGI (OVCAR-4 ovarian): > 76.9 µM | TGI (SK-MEL-28 melanoma): > 31.6 µM | TGI (HS 578T breast): > 100 µM | TGI (786-0 renal): > 100 µM | TGI (DU-145 prostate): > 70 µM | TGI (MDA-MB-435): > 100 µM | TGI (BT-549 breast): > 56.1 µM | TGI (HT29 colon): > 100 µM | TGI (PC-3 prostate): > 100 µM | TGI (UACC-62 melanoma): 7.45 µM | TGI (U251 CNS): > 100 µM | TGI (IGROV1 ovarian): > 59.3 µM | TGI (SNB-75 CNS): > 28.7 µM | TGI (SK-MEL-2 melanoma): > 100 µM | TGI (MDA-N): > 100 µM | TGI (NCI-H460 lung): > 81.5 µM | TGI (MCF7 breast): 5.33 µM | TGI (HCT-116 colon): > 44 µM | TGI (ACHN renal): 4.68 µM | TGI (MDA-MB-231 breast): > 100 µM | TGI (CAKI-1 renal): > 100 µM | TGI (A498 renal): 97.5 µM | TGI (RPMI-8226 leukemia): > 100 µM | TGI (LOX IMVI melanoma): > 100 µM | TGI (CCRF-CEM leukemia): > 100 µM | TGI (COLO 205 colon): > 100 µM | TGI (SF-539 CNS): 4.36 µM | TGI (RXF 393 renal): 0.671 µM | TGI (SR leukemia): > 100 µM | TGI (HOP-62 NSCLC): > 31 µM | TGI (NCI-H23 lung): > 100 µM | TGI (SN12C renal): > 100 µM | TGI (NCI-H226 lung): > 26.5 µM | TGI (MALME-3M melanoma): > 100 µM | TGI (OVCAR-5 ovarian): 8.71 µM | TGI (HL-60(TB) leukemia): > 100 µM | TGI (UO-31 renal): 3.08 µM | TGI (NCI/ADR-RES ovarian): > 62.9 µM | TGI (SK-OV-3 ovarian): > 65.5 µM | TGI (SF-295 CNS): > 28.2 µM | TGI (SNB-19 CNS): > 100 µM | TGI (K-562 leukemia): > 100 µM | TGI (SK-MEL-5 melanoma): 5.39 µM | TGI (MOLT-4 leukemia): > 100 µM | TGI (OVCAR-3 ovarian): > 100 µM | TGI (T-47D breast): > 100 µM
